Results on one compound are retold here after patent US20200338028A1, “BENZENESULFONAMIDE DERIVATIVES AND METHOD FOR MODULATING LIPID RAFT” (Gongwin Biopharm Co., Ltd., priority 2017, published 2020).

Molecules are shown by their SMILES. “Also recorded” adds a separate entry of the source. Like-named read-outs stand apart in the source and are kept apart here.

One data set concerns normal prostate cells. Briefly: SRB assay, anti-proliferative effect. Type of data set: cell-based, human. The note with it: primary prostate cells, compared with CRPC cells, FIG. 1A. How it is done: Two castration-resistant prostate cancer (CRPC) cell lines of PC-3 and DU-145 were cultured in RPMI 1640 medium with 5% FBS (v/v), penicillin (100 units/ml) and streptomycin (100 μg/ml). Cultures were maintained in a 37° C. incubator with 5% CO2, and adherent cultures were passaged using 0.05% trypsin-EDTA when they reached about 80% confluence. Prostate cells were from human tissue samples which were obtained following informed consent of the donors and after full review by the Ethics Review Committee at National Taiwan University Hospital. The prostate specimens were from males by transurethral resection of the prostate. All patients with prostatism histories were diagnosed to have benign prostate hyperplasia by rectal digital examination, transrectal sonography of prostate and urodynamic studies. […] SRB assay is an accurate and reproducible assay based upon quantitative SRB staining of cellular proteins, and the process for SRB assay was performed as follows. […] The absorbance of SRB was measured at a wavelength of 515 nm at the time of p-TSA addition (hereinafter referred to as time zero, TZ), and after additional incubation of DMSO (hereinafter referred to as control growth, CTL) or p-TSA (hereinafter referred to as Tx). The percentage of cell growth inhibition was calculated by the formula of [1−(Tx−TZ)/(CTL−TZ)]×100%. […]
A general note: Sulforhodamine B stains cellular protein and so reports cell mass.

In data set [1] the test system is PC-3-derived cancer xenografts. Briefly: in vivo anti-tumor xenograft model. More on the design: species or system nude mice. The protocol: In vivo anti-tumor study was performed as follows. PC-3-derived cancer xenografts in nude mice were used as an in vivo model. The nude mice were subcutaneously injected with PC-3 cells (10^7 cell/mouse). The tumors were measured every day. When the tumors reached a volume of 100 mm^3, the mice were divided into two groups (n=8-10), and compound treatment was initiated. p-TSA was dissolved in 15% 1-methyl-2-pyrrolidone (NMP). Vehicle (15% NMP) or p-TSA was given intraperitoneally every other day. The length (1) and width (w) of the tumor were measured, and tumor volume was calculated as lw^2/2. The protocols of the in vivo study were approved by the Animal Care and Use Committee at National Taiwan University. All animal procedures and protocols were approved by AAALAC-accredited facility. Data were presented as mean±standard error of the mean (SEM) for the indicated number of separate experiments. The statistical analysis was performed using one way analysis of variance (ANOVA) for multiple sample sets. Single comparisons of appropriate groups were done with Student's t-test. P-values less than 0.05 are statistically considered significant.
The tumor xenograft in nude mice models after subcutaneously inoculated PC-3 cells was used to conduct in vivo efficacy evaluation of p-TSA. The operator was fully blinded to the experimental treatment. The initial intraperitoneal injection of 75 mg/kg p-TSA was given when the tumor reached a size of 100 mm^3 (p-TSA group 121±40 mm^3 v.s. control group 101±48 mm^3). First, the tumor growth inhibition treatment/control (T/C) ratio was used to quantify the treatment effect of p-TSA in the mouse xenograft model.

The subject of another data set is PC-3 cells. Briefly: colony formation (clonogenic) assay. Type of data set: cell-based, human. The note with it: for IC50: Homo sapiens, PC-3, 240 h, 10 days, FIG. 4F, read-out: IC50, growth inhibition, colony formation assay. How it is done:
To assay the anchorage-dependent clonogenic effect, each individual PC-3 and DU-145 cells (150 cells/well) were seeded in a 6-well plate. After a 10-day treatment with p-TSA, the cell colonies were rinsed with phosphate-buffered saline (PBS), stained with 0.4% (w/v) crystal violet dissolved in 20% methanol, and lysed by 50 mM sodium citrate dissolved in 50% ethanol. The absorbance was read at a wavelength of 595 nm.
To further substantiate the role of Akt, the Myr-Akt overexpressed PC-3 cells were prepared with the method shown as follows. The plasmid encoding Myr-Akt, an N-terminally myristoylation signal-attached Akt, was a gift from Professor Mien-Chie Hung (The University of Texas, M.D. Anderson Cancer Center). For transfection, PC-3 cells were seeded into 60-mm tissue culture dishes with 30% confluence and grown for 24 h to 50-60% confluence. Each dish was washed with serum-free Opti-MEM (Life Technologies), and 2 ml of the serum-free Opti-MEM was then added. Aliquots containing Myr-Akt expression vector or a control plasmid in serum-free Opti-MEM were transfected into cells using Lipofectamine 2000 (Invitrogen) following the manufacturer's instructions. After incubation for 6 h at 37° C., cells were washed with serum-free Opti-MEM and incubated in 10% FBS-containing RPMI-1640 medium for 48 h. The cells were treated with or without p-TSA and then the related analyses were performed. […] Furthermore, the functional rescue of Myr-Akt was determined. […] However, overexpression of Myr-Akt had minimal effect on p-TSA-induced cyclin D1 down-regulation.

Broadly, the IC50 is the concentration that gives 50% inhibition.

Regarding `Cc1ccc(S(N)(=O)=O)cc1` [p-TSA, para-toluenesulfonamide], the “anti-proliferative activity in normal prostate cells” value in the data set with normal prostate cells is “lower anti-proliferative activity”. Also, the median tumor size in data set [1] (75 mg/kg intraperitoneally) is given as 403 mm^3. In data set [1] (75 mg/kg intraperitoneally every other day, end of treatment, FIG. 7A), the “tumor growth inhibition treatment/control (T/C) ratio” value worked out at 0.44. This compound also yielded a tumor growth rate in data set [1] (75 mg/kg intraperitoneally, FIG. 7B) of 16.8 mm^3/day. Moreover, the “loss of body weight versus control group” value in data set [1] (75 mg/kg intraperitoneally, FIG. 7C) was “no significant between-group difference”. In data set [1] (75 mg/kg intraperitoneally, versus 765 mm^3 in the control group), the “inhibition by median tumor size” value is reported as 47%. In addition, the “inhibition of tumor growth rate” value in data set [1] (75 mg/kg intraperitoneally, versus control group 37.8 mm^3/day) worked out at 56%. In addition, the “day on which the group reached a 20% loss of body weight” value in data set [1] (75 mg/kg intraperitoneally, control group 12th day) was 22 days. For the same compound, the “p-Akt expression in tumors” value in data set [1] (six randomly selected tumors, FIG. 7D, listed as PTS) is on record as “significant inhibitory effect; also recorded: significantly inhibited”. For the same compound, the IC50 in the data set on PC-3 cells (PC-3 overexpressing constitutively active Myr-Akt) came out at 680 ± 20 µM; in the data set with PC-3 cells (PC-3 without Myr-Akt overexpression), 580 ± 20 µM. Besides, the “anti-proliferative effect, clonogenic assay” value in the data set on PC-3 cells (PC-3, 10 days, FIG. 1B) is “long-term anti-proliferative effect”.
